Measured values reported in PubChem BioAssay AID2060897 (Molecular Pharmacology Branch, DTP, NCI, 2025).

Test system: 966289-007-R4-J1-PDC complex spheroid viability
Test: Anticancer human tumor 966289-007-R4-J1-PDC patient-derived pancreatic adenocarcinoma cell line growth inhibition [RAS]
Conditions: for IC50: curve of first compound; for viability, T/C: stronger effect = lower value
Outline: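 Agents were tested in combination matrices in half-log decrements from a top concentration at or near clinical Cmax (10 microM if undetermined). Targets were multi-cell spheroids of tumour lines plus HUVEC and MSC stromal cells.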
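Note: spheroids exposed to agents for one week before readout.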
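Throughout, for viability, T/C: percent viability relative to DMSO vehicle control wells as 100%.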

SMILES: CC1(C)CCC(Nc2ncc(C(F)(F)F)c(-c3c[nH]c4c(P(C)(C)=O)c(C#N)ccc34)n2)CN1 (centres undefined) + CCn1c(-c2cc(N3CCN(C)CC3)cnc2C(C)OC)c2c3cc(ccc31)-c1csc(n1)CC(NC(=O)C1CC1C)C(=O)N1CCCC(N1)C(=O)OCC(C)(C)C2
- IC50 (second compound 0.000949 µM): 6.91 nM
- IC50 (second compound 0.003 µM): 6.78 nM
- IC50 (second compound 0.00949 µM): 6.97 nM
- IC50 (second compound 0.03 µM): 7.53 nM
- IC50 (second compound 0.0949 µM): 7.39 nM
- IC50 (second compound 0.3 µM): 6.14 nM
- viability, T/C (second compound 0.000949 µM, first compound 0.000949 µM): 124%
- viability, T/C (second compound 0.000949 µM, first compound 0.003 µM): 104%
- viability, T/C (second compound 0.000949 µM, first compound 0.00949 µM): 29%
- viability, T/C (second compound 0.000949 µM, first compound 0.03 µM): 14.5%
- viability, T/C (second compound 0.000949 µM, first compound 0.0949 µM): 8.71%
- viability, T/C (second compound 0.000949 µM, first compound 0.3 µM): 9.97%
- viability, T/C (second compound 0.003 µM, first compound 0.000949 µM): 134%
- viability, T/C (second compound 0.003 µM, first compound 0.003 µM): 99.9%
- viability, T/C (second compound 0.003 µM, first compound 0.00949 µM): 29.9%
- viability, T/C (second compound 0.003 µM, first compound 0.03 µM): 8.54%
- viability, T/C (second compound 0.003 µM, first compound 0.0949 µM): 10.7%
- viability, T/C (second compound 0.003 µM, first compound 0.3 µM): 9.36%
- viability, T/C (second compound 0.00949 µM, first compound 0.000949 µM): 130%
- viability, T/C (second compound 0.00949 µM, first compound 0.003 µM): 116%
- viability, T/C (second compound 0.00949 µM, first compound 0.00949 µM): 26%
- viability, T/C (second compound 0.00949 µM, first compound 0.03 µM): 14.3%
- viability, T/C (second compound 0.00949 µM, first compound 0.0949 µM): 12.3%
- viability, T/C (second compound 0.00949 µM, first compound 0.3 µM): 11.2%
- viability, T/C (second compound 0.03 µM, first compound 0.000949 µM): 113%
- viability, T/C (second compound 0.03 µM, first compound 0.003 µM): 115%
- viability, T/C (second compound 0.03 µM, first compound 0.00949 µM): 34%
- viability, T/C (second compound 0.03 µM, first compound 0.03 µM): 16.7%
- viability, T/C (second compound 0.03 µM, first compound 0.0949 µM): 12.3%
- viability, T/C (second compound 0.03 µM, first compound 0.3 µM): 10.1%
- viability, T/C (second compound 0.0949 µM, first compound 0.000949 µM): 122%
- viability, T/C (second compound 0.0949 µM, first compound 0.003 µM): 139%
- viability, T/C (second compound 0.0949 µM, first compound 0.00949 µM): 27.6%
- viability, T/C (second compound 0.0949 µM, first compound 0.03 µM): 12.7%
- viability, T/C (second compound 0.0949 µM, first compound 0.0949 µM): 13.7%
- viability, T/C (second compound 0.0949 µM, first compound 0.3 µM): 9.77%
- viability, T/C (second compound 0.3 µM, first compound 0.000949 µM): 128%
- viability, T/C (second compound 0.3 µM, first compound 0.003 µM): 86.9%
- viability, T/C (second compound 0.3 µM, first compound 0.00949 µM): 27.7%
- viability, T/C (second compound 0.3 µM, first compound 0.03 µM): 12.8%
- viability, T/C (second compound 0.3 µM, first compound 0.0949 µM): 12.7%
- viability, T/C (second compound 0.3 µM, first compound 0.3 µM): 11.7%

SMILES: C[C@@H](NC(=O)c1ncnc(N)c1Cl)c1ncc(C(=O)Nc2cc(C(F)(F)F)c(Cl)cn2)s1 + C=CC(=O)N1CCN(c2nc(OCC3CCCN3C)nc3c(F)c(-c4nc(N)cc(C)c4C(F)(F)F)c(Cl)cc23)C(C)C1
- IC50 (second compound 0.00316 µM): > 10000 nM
- IC50 (second compound 0.01 µM): > 10000 nM
- IC50 (second compound 0.0316 µM): > 10000 nM
- IC50 (second compound 0.1 µM): > 10000 nM
- IC50 (second compound 0.316 µM): > 10000 nM
- IC50 (second compound 1 µM): > 10000 nM
- viability, T/C (second compound 0.00316 µM, first compound 0.0316 µM): 123%
- viability, T/C (second compound 0.00316 µM, first compound 0.1 µM): 117%
- viability, T/C (second compound 0.00316 µM, first compound 0.316 µM): 115%
- viability, T/C (second compound 0.00316 µM, first compound 1 µM): 119%
- viability, T/C (second compound 0.00316 µM, first compound 3.16 µM): 128%
- viability, T/C (second compound 0.00316 µM, first compound 10 µM): 76.2%
- viability, T/C (second compound 0.01 µM, first compound 0.0316 µM): 112%
- viability, T/C (second compound 0.01 µM, first compound 0.1 µM): 116%
- viability, T/C (second compound 0.01 µM, first compound 0.316 µM): 122%
- viability, T/C (second compound 0.01 µM, first compound 1 µM): 109%
- viability, T/C (second compound 0.01 µM, first compound 3.16 µM): 119%
- viability, T/C (second compound 0.01 µM, first compound 10 µM): 100%
- viability, T/C (second compound 0.0316 µM, first compound 0.0316 µM): 120%
- viability, T/C (second compound 0.0316 µM, first compound 0.1 µM): 113%
- viability, T/C (second compound 0.0316 µM, first compound 0.316 µM): 118%
- viability, T/C (second compound 0.0316 µM, first compound 1 µM): 128%
- viability, T/C (second compound 0.0316 µM, first compound 3.16 µM): 127%
- viability, T/C (second compound 0.0316 µM, first compound 10 µM): 86.2%
- viability, T/C (second compound 0.1 µM, first compound 0.0316 µM): 116%
- viability, T/C (second compound 0.1 µM, first compound 0.1 µM): 119%
- viability, T/C (second compound 0.1 µM, first compound 0.316 µM): 123%
- viability, T/C (second compound 0.1 µM, first compound 1 µM): 123%
- viability, T/C (second compound 0.1 µM, first compound 3.16 µM): 116%
- viability, T/C (second compound 0.1 µM, first compound 10 µM): 111%
- viability, T/C (second compound 0.316 µM, first compound 0.0316 µM): 115%
- viability, T/C (second compound 0.316 µM, first compound 0.1 µM): 107%
- viability, T/C (second compound 0.316 µM, first compound 0.316 µM): 130%
- viability, T/C (second compound 0.316 µM, first compound 1 µM): 125%
- viability, T/C (second compound 0.316 µM, first compound 3.16 µM): 116%
- viability, T/C (second compound 0.316 µM, first compound 10 µM): 118%
- viability, T/C (second compound 1 µM, first compound 0.0316 µM): 101%
- viability, T/C (second compound 1 µM, first compound 0.1 µM): 103%
- viability, T/C (second compound 1 µM, first compound 0.316 µM): 120%
- viability, T/C (second compound 1 µM, first compound 1 µM): 128%
- viability, T/C (second compound 1 µM, first compound 3.16 µM): 134%
- viability, T/C (second compound 1 µM, first compound 10 µM): 94.1%
